# The source made the active and inactive calls. No cut-off for these calls is given here.
# Tests used:
# A549 [1] = test: Induction of cell cycle arrest in human A549 cells assessed as accumulation of cells at G2 phase at 0.5 uM measured for 24 hrs by PI/Rnase staining based flow cytometry (reference value: 13.4 %); type: functional
# A549 [2] = test: Downregulation of c-Met expression in human A549 cells at 1 uM by Western blot analysis; type: functional, cell-based; details: time <= 72.0 hrs
# NCI-H1975 [3] = test: Downregulation of c-Met mRNA expression in human NCI-H1975 cells at 0.5 to 1 uM incubated for 24 hrs by qRT-PCR analysis; type: functional, cell-based; details: dose 0.5-1 µM
# A549 [4] = test: Induction of cell cycle arrest in human A549 cells assessed as accumulation of cells at G1 phase at 2 uM measured for 24 hrs by PI/Rnase staining based flow cytometry (reference value: 75.2 %); type: functional
# NCI-H1975 [5] = test: Induction of cell cycle arrest in human NCI-H1975 cells assessed as accumulation of cells at G1 phase at 1 uM measured for 24 hrs by PI/Rnase staining based flow cytometry (reference value: 79.2 %); type: functional
# NCI-H1975 [6] = test: Induction of cell cycle arrest in human NCI-H1975 cells assessed as accumulation of cells at G1 phase at 2 uM measured for 24 hrs by PI/Rnase staining based flow cytometry (reference value: 79.2 %); type: functional
# NCI-H1975 [7] = test: Induction of cell cycle arrest in human NCI-H1975 cells assessed as accumulation of cells at G2 phase at 2 uM measured for 24 hrs by PI/Rnase staining based flow cytometry (reference value: 14.8 %); type: functional
# A549 [8] = test: Induction of apoptosis in human A549 cells assessed as viable cells at 0.5 uM incubated for 24 hrs by Annexin V-FITC/PI staining based flow cytometry analysis (reference value: 91.3%); type: functional; details: read-out: Activity
# A549 [9] = test: Induction of apoptosis in human A549 cells assessed as necrotic cells at 0.5 uM incubated for 24 hrs by Annexin V-FITC/PI staining based flow cytometry analysis (reference value: 4.37 %); type: functional
# A549 [10] = test: Induction of apoptosis in human A549 cells assessed as viable cells at 1 uM incubated for 24 hrs by Annexin V-FITC/PI staining based flow cytometry analysis (reference value: 91.3%); type: functional; details: read-out: Activity
# A549 [11] = test: Induction of apoptosis in human A549 cells assessed as viable cells at 2 uM incubated for 24 hrs by Annexin V-FITC/PI staining based flow cytometry analysis (reference value: 91.3%); type: functional; details: read-out: Activity
# A549 [12] = test: Induction of apoptosis in human A549 cells assessed as necrotic cells at 2 uM incubated for 24 hrs by Annexin V-FITC/PI staining based flow cytometry analysis (reference value: 4.37 %); type: functional
# NCI-H1975 [13] = test: Induction of apoptosis in human NCI-H1975 cells assessed as viable cells at 0.5 uM incubated for 24 hrs by Annexin V-FITC/PI staining based flow cytometry analysis (reference value: 90.1 %); type: functional; details: read-out: Activity
# NCI-H1975 [14] = test: Induction of apoptosis in human NCI-H1975 cells assessed as viable cells at 1 uM incubated for 24 hrs by Annexin V-FITC/PI staining based flow cytometry analysis (reference value: 90.1 %); type: functional; details: read-out: Activity
# NCI-H1975 [15] = test: Induction of apoptosis in human NCI-H1975 cells assessed as early apoptotic cells at 1 uM incubated for 24 hrs by Annexin V-FITC/PI staining based flow cytometry analysis (reference value: 0.35 %); type: functional
# NCI-H1975 [16] = test: Induction of apoptosis in human NCI-H1975 cells assessed as necrotic cells at 1 uM incubated for 24 hrs by Annexin V-FITC/PI staining based flow cytometry analysis (reference value: 7.33 %); type: functional
# NCI-H1975 [17] = test: Induction of apoptosis in human NCI-H1975 cells assessed as necrotic cells at 2 uM incubated for 24 hrs by Annexin V-FITC/PI staining based flow cytometry analysis (reference value: 7.33 %); type: functional
# NCI-H1975 [18] = test: Inhibition of colony formation in human NCI-H1975 cells incubated for 2 weeks by crystal violet staining based analysis; type: functional, cell-based; details: dose 0.5-2 µM
# A549 [19] = test: Inhibition of cell migration in human A549 cells incubated for 12 hrs by crystal violet staining based analysis; type: functional; details: dose 0.5-2 µM
# A549 [20] = test: Inhibition of cell invasion in human A549 cells incubated for 12 hrs; type: functional, cell-based; details: dose 0.5-2 µM
# NCI-H1975 [21] = test: Inhibition of cell invasion in human NCI-H1975 cells incubated for 12 hrs; type: functional, cell-based; details: dose 0.5-2 µM
# A549 [22] = test: Antitumor activity against human A549 cells xenografted in BALB/c mouse assessed as tumor growth inhibition at 20 mg/kg, po administered once a day and measured up to 24 days; type: functional; details: A549, 576 h, time <= 24 day, read-out: TGI
# A549 [23] = test: Antitumor activity against human A549 cells xenografted in BALB/c mouse assessed as downregulation of c-MET expression in tumor at 20 mg/kg, po administered once a day and measured for 20 days by Western blot analysis; type: functional, organism-based; details: time 20.0 day
# [24] = Toxicity in BALB/c mouse xenografted with human A549 cells assessed as heart damage at 40 mg/kg, po administered once a day and measured after 20 days by H and E staining based analysis; type: organism-based; details: in vivo, 480 h, time 20 day
# [25] = Toxicity in BALB/c mouse xenografted with human A549 cells assessed as liver damage at 20 mg/kg, po administered once a day and measured after 20 days by H and E staining based analysis; type: organism-based; details: in vivo, 480 h, time 20 day
# [26] = Toxicity in BALB/c mouse xenografted with human A549 cells assessed as lung damage at 20 mg/kg, po administered once a day and measured after 20 days by H and E staining based analysis; type: organism-based; details: in vivo, 480 h, time 20 day
# [27] = Toxicity in BALB/c mouse xenografted with human A549 cells assessed as kidney damage at 20 mg/kg, po administered once a day and measured after 20 days by H and E staining based analysis; type: organism-based; details: in vivo, 480 h, time 20 day
# [28] = Toxicity in BALB/c mouse xenografted with human A549 cells assessed as kidney damage at 40 mg/kg, po administered once a day and measured after 20 days by H and E staining based analysis; type: organism-based; details: in vivo, 480 h, time 20 day
# [29] = Acute toxicity in Sprague-Dawley rat assessed as heart damage at 500 to 2000 mg/kg, po measured every 2 days by H and E staining based analysis; type: organism-based; details: in vivo, 48 h, dose 500-2000 mg/kg, time 2 day
# [30] = Acute toxicity in Sprague-Dawley rat assessed as spleen damage at 500 to 2000 mg/kg, po measured every 2 days by H and E staining based analysis; type: organism-based; details: in vivo, 48 h, dose 500-2000 mg/kg, time 2 day
# [31] = Acute toxicity in Sprague-Dawley rat assessed as lung damage at 500 to 2000 mg/kg, po measured every 2 days by H and E staining based analysis; type: organism-based; details: in vivo, 48 h, dose 500-2000 mg/kg, time 2 day
# BaF3 [32] = test: Antiproliferative activity against mouse BaF3 cells harboring TPR-MET L1195V mutant incubated for 24 hrs by CCK-8 assay; type: functional, cell-based; details: BaF3, 24 h
# BaF3 [33] = test: Antiproliferative activity against mouse BaF3 cells harboring TPR-MET […] mutant incubated for 24 hrs by CCK-8 assay; type: functional, cell-based; details: BaF3, 24 h
# BaF3 [34] = test: Antiproliferative activity against mouse BaF3 cells harboring TPR-MET D1228N mutant incubated for 24 hrs by CCK-8 assay; type: functional, cell-based; details: BaF3, 24 h
# Quadruplex DNA = test: Binding affinity to c-MET G4-quadruplex DNA (unknown origin) assessed as change in melting temperature
smiles,measurement,setting,value
COc1cccc(-c2ccc(-c3nc4c5cccnc5c5ncccc5c4[nH]3)o2)c1,Activity,A549 [1],14.6%
same,Activity,A549 [2],Time-dependent-effect
same,Activity,NCI-H1975 [3],Active
same,Activity,A549 [4],83.9%
same,Activity,NCI-H1975 [5],82.1%
same,Activity,NCI-H1975 [6],84.2%
same,Activity,NCI-H1975 [7],11%
same,viability at 0.5 µM,A549 [8],83.2%
same,Activity,A549 [9],3.79%
same,viability at 1 µM,A549 [10],74%
same,viability at 2 µM,A549 [11],57.4%
same,Activity,A549 [12],6.99%
same,viability at 0.5 µM,NCI-H1975 [13],85.1%
same,viability at 1 µM,NCI-H1975 [14],83.6%
same,Activity,NCI-H1975 [15],2.2%
same,Activity,NCI-H1975 [16],4.06%
same,Activity,NCI-H1975 [17],3.94%
same,inhibition,NCI-H1975 [18],Dose-dependent-effect
same,inhibition,A549 [19],Dose-dependent-effect
same,inhibition,A549 [20],Dose-dependent-effect
same,inhibition,NCI-H1975 [21],Dose-dependent-effect
same,inhibition in vivo at 20 mg/kg,A549 [22],43%
same,Activity,A549 [23],Active
same,Activity,[24],Non-toxic
same,Activity,[25],Non-toxic
same,Activity,[26],Non-toxic
same,Activity,[27],Non-toxic
same,Activity,[28],Non-toxic
same,Activity,[29],Non-toxic
same,Activity,[30],Non-toxic
same,Activity,[31],Non-toxic
same,IC50,BaF3 [32],510 nM
same,IC50,BaF3 [33],620 nM
same,IC50,BaF3 [34],400 nM
same,ΔTm,Quadruplex DNA,10.8 °C

# — ChEMBL document CHEMBL6182924, “Discovery of a Novel and Potent MET Transcription Inhibitor Targeting Promoter G-Quadruplex for the Treatment of NSCLC” (J Med Chem, 2025)
